In US6815425B1 (The United States of America as represented by the …, priority 1999, dated 2004):
Entries after “also recorded” stand apart in the source; their conditions may differ.

Columns and labels:
volume of necrosis = details: administered 15 min prior or 30 min post TBI; preliminary studies; cited from earlier work
focal ischemia = details: rat; also when given 3 hours or 5 hours after start of recirculation (temporary model); cited from earlier work
[1] = animal studies / rodents; cited from earlier work
[2] = cited from earlier work
striatal lesions = details: striatal injections; cited from earlier work
[3] = cited from earlier work; for plasma levels of thyroid hormone: in vivo
[4] = test system: serum enzyme thyroliberinase; details: cited from earlier work
forebrain neurons = test: Glutamate-induced neurotoxicity, colorimetric MTT assay, cultured forebrain neurons; assay type: cell-based, rat
Method: (§1) Primary cultures of neurons derived from the forebrains and spinal cords of E15 fetuses were prepared and maintained in culture for eight days. […] Extending these observations, we compared the neuroprotective efficacy of EEP and TRH.

[5] = test system: glutamate-stimulated Ca2+ dynamics; test: Glutamate-stimulated Ca2+ dynamics after pre-incubation; assay type: cell-based
[6] = cited from earlier work; remark: listed apart in the source
spinal cord neurons = test: Glutamate-induced neurotoxicity, colorimetric MTT assay, cultured spinal cord neurons; assay type: cell-based, rat; details: 100 μM glutamate 30 min
Method: as §1

[7] = rats, intraperitoneal 1.0 mg/kg; cited from earlier work
[8] = test system: cultured forebrain neurons; test: Neuroprotection by EEP with or without SPBN in cultured forebrain neurons exposed to Glu, MTT assay; assay type: cell-based, rat; details: SPBN 10 mM where present, Glu 100 μM, 1 h
Method: Neuroprotection evident at higher concentrations of the tripeptide is further enhanced by the addition of the nitrone. Percent neuroprotection=100×((viabilitytest−vibilitymean Glu))/(viabilitymean control−viabilitymean Glu)). Neuroprotection was then assessed by conducting the colorimetric MTT assay.

locomotor activity = details: administered to rats; cited from earlier work
[9] = test system: immobility in the Porsolt swim test; details: administered to rats; cited from earlier work
TRH receptor = molecular target: T1, TRH receptor (Homo sapiens, UniProt P34981); details: reported; cited from earlier work
T1 sequence (P34981 1-398): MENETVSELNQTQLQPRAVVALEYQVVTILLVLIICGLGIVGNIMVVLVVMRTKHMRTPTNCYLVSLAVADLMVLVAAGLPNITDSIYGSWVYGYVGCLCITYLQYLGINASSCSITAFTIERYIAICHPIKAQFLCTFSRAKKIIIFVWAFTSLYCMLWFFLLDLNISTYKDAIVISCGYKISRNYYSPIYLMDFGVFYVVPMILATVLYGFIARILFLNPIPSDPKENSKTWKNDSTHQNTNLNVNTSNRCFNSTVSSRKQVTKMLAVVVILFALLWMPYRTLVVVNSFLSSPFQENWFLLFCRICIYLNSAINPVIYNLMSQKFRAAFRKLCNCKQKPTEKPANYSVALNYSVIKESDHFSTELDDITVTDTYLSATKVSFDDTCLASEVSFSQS

[10] = compared with TRH; cited from earlier work

CC(C)(C)[N+]([O-])=Cc1ccc(S(=O)(=O)[O-])cc1S(=O)(=O)[O-].[Na+].[Na+] [NXY-059]
volume of necrosis (volume of necrosis): effective in decreasing volume of necrosis
efficacy in temporary and permanent focal ischemia (focal ischemia): effective

CC(C)(C)[N+]([O-])=Cc1ccccc1 [PBN, α-Phenyl-N-tert-butylnitrone]
toxicity [1]: significant toxicity at high doses; also recorded: toxic in rodents at high doses

CC(C)(C)[N+]([O-])=Cc1ccccc1S(=O)(=O)O [SPBN, N-tert-Butyl-α-(2-sulfophenyl)nitrone]
toxicity [1]: without significant toxicity; also recorded: Toxicity has not been a problem
solubility in aqueous solutions [2]: soluble
volume of lesions induced by NMDA, kainic acid, AMPA, MPP+, 3-acetyl pyridine and malonate (striatal lesions): decreasing the volume of the lesions

NC(=O)[C@@H]1CCCN1C(=O)[C@H](Cc1cnc[nH]1)NC(=O)[C@@H]1CCC(=O)N1 [TRH, pyroglutamate-histidine-proline-amide, reference compound]
plasma levels of thyroid hormone [3]: elevates
hydrolysis by serum enzyme thyroliberinase [4]: hydrolyzed
effect on glutamate-mediated neurotoxicity (forebrain neurons): relatively little effect
effect on glutamate-stimulated Ca2+ dynamics [5]: clearly does
hydrolysis by pyroglutamylpeptidase II found in blood ([6]; injected, blood): rapidly hydrolyzed

pGLU-GLU-PRO-NH2 [EEP]
efficacy as a releaser of thyroid stimulating hormone or triiodothyronine ([3]; compared to thyrotropin releasing hormone): minimal efficacy
plasma levels of thyroid hormone [3]: does not elivate
hydrolysis by serum enzyme thyroliberinase [4]: not hydrolyzed
reduction of Glu-induced toxicity (spinal cord neurons; 500 μM EEP, n=7): 20±2.0%
neuroprotection (reduction of Glu-induced toxicity) (spinal cord neurons; 1 mM EEP, n=8): 38.9±4.9%
reduction of Glu-induced toxicity (forebrain neurons; 500 μM EEP, 100 μM glutamate 30 min, n=7): 29.8±5.6%
neuroprotection (reduction of Glu-induced toxicity) (forebrain neurons; 1 mM EEP, 100 μM glutamate 30 min, n=7): 54.1±5.3%
neuroprotective efficacy / potency relative to TRH (forebrain neurons; EEP compared with TRH, neuron type not stated): over three times as effective as TRH; also recorded: three times the neuroprotective potency of TRH
increase of EEP level in amygdala [7]: 7 fold
increase of EEP level in cortex [7]: 14 fold
increase of EEP level in the eye [7]: Over one hundred
increase of EEP level in the hypothalamus [7]: 2 fold
increase of EEP level in the medulla [7]: 4 fold
increase of EEP level in the pituitary [7]: 11 fold
effect on glutamate-stimulated Ca2+ dynamics [5]: does not affect
degradation in human serum ([6]; human serum): not degraded at all
Percent Neuroprotection ([8]; EEP 300 μM): 13.321 ± 7.319%
Percent Neuroprotection ([8]; EEP 1000 μM): 35.784 ± 15.431%
locomotor activity (locomotor activity): increases
immobility in the Porsolt swim test [9]: decreases
affinity for the TRH receptor (TRH receptor): low affinity
stability in follicular fluid [10]: more stable than TRH
